Assay results published in PubChem BioAssay AID1963966 (Molecular Pharmacology Branch, DTP, NCI, 2024).

Tested on: 935938-334-R-J1-PDC spheroids with HUVEC/MSC, viability
Assay: Anticancer human tumor 935938-334-R-J1-PDC patient-derived small intestine adenocarcinoma cell line growth inhibition [PI3K]
Settings: for viability, T/C: stronger effect = lower value
Source text: Combinatorial screen of targeted agents with the PI3K inhibitors inavolisib, alpelisib, duvelisib, and copanlisib in multi-cell type tumor spheroids
A high-throughput screen of multi-cell type tumor spheroids was designed to identify active combinations of targeted small molecules and PI3K pathway inhibitors. Complex spheroids include a stromal component modeled by human endothelial cells (HUVEC) and fibroblasts modeled by human mesenchymal stem cells (MSCs). The concentration ranges selected for each drug and investigational agent were based upon clinically achievable concentrations if the clinical Cmax of the agent was known.
Compounds. The drugs and investigational agents: inavolisib (NSC800729), alpelisib (NSC765974), duvelisib (NSC772469), copanlisib (NSC816437), ipatasertib (NSC767898), afuresertib (NSC778305), talazoparib (NSC767125), sapanisertib (NSC764658), selumetinib (NSC741078), tovorafenib (DAY101, NSC766906), vemurafenib (NSC761431), ravoxertinib (NSC781343), sotorasib (NSC818433), MRTX1133 (NSC 836407), abemaciclib (NSC 768073), palbociclib (NSC758247), venetoclax (NSC 766270), SY5609 (NSC837396), enzalutamide (NSC755605), and darolutamide (NSC825331), were obtained from the National Cancer Institute (NCI) Developmental Therapeutics Program Chemical Repository. The FDA-approved anticancer drug set is available from the NCI Developmental Therapeutics Program. […] The stock solutions were prepared in dimethyl sulfoxide (DMSO, Sigma-Aldrich, St. Louis, MO, cat. D2650) at 800-fold the tested concentration and stored at -70 degrees C prior to their use. All drugs and investigational agents were tested over a range starting from a high concentration at or near the clinical Cmax and decreasing in half-log increments. If the clinical Cmax for an agent had not been determined, the highest concentration tested was 10 microM.
Cell Culture. All cells were maintained in an incubator at 37 degrees C and 5% CO2 with 95% humidity. The PDC lines were cultured according to standard operating procedures established by the NCI PDMR (https://pdmr.cancer.gov/sops/default.htm). All PDCs were thawed and cultured in Matrigel-coated flasks prepared with a working solution of 1X Ham's F-12 nutrient mix, without supplementation (Invitrogen, Waltham, MA, cat. 11765054), 100 U/mL penicillin-streptomycin (Invitrogen, cat. 15140122), and 2.5% Matrigel (Corning Inc., Corning, NY, cat. 354248) for the first three passages. The 354836-022-R-J1-PDC, 475296-252-R-J1-PDC, and 997726-040-R-J2-PDC lines were cultured in 6A media, which includes advanced DMEM/F-12 (Thermo Fisher Scientific, cat. 12634028), 10 mM HEPES (Thermo Fisher Scientific, cat. 15630080), 1X GlutaMAX supplement (Thermo Fisher Scientific, cat. 35050061), 0.1 mg/mL primocin (InvivoGen, San Diego, CA, cat. ant-pm-2), 10% defined fetal bovine serum, heat inactivated (HyClone Laboratories Inc., Logan, UT, cat. SH30070.03HI), 50% L-WRN conditioned media (ATCC, cat. CRL-3276), 1.25 mM N-Acetyl-L-cysteine (Sigma-Aldrich, cat. A9165), 10 mM nicotinamide (Sigma-Aldrich, cat. N0636), 1X B-27 supplement (Thermo Fisher Scientific, cat. 17504044), 1X N-2 supplement (Thermo Fisher Scientific, cat. 17502048), and 10 microM Y-27632 dihydrochloride (Tocris Bioscience, Bristol, United Kingdom, cat. 1254). The 624824-186-R-J2-PDC line was cultured in 6C/Colon 1B media, which includes all 6A media components plus 50 ng/mL human EGF recombinant protein (Thermo Fisher Scientific, cat. PHG0311). […]

[1] = curve of first compound, second compound 0.0316 µM
[2] = curve of first compound, second compound 0.1 µM
[3] = curve of first compound, second compound 0.316 µM
[4] = curve of first compound, second compound 1 µM
[5] = curve of first compound, second compound 3.16 µM
[6] = curve of first compound, second compound 10 µM
[7] = second compound 0.0316 µM, first compound 0.0316 µM
[8] = second compound 0.0316 µM, first compound 0.1 µM
[9] = second compound 0.0316 µM, first compound 0.316 µM
[10] = second compound 0.0316 µM, first compound 1 µM
[11] = second compound 0.0316 µM, first compound 3.16 µM
[12] = second compound 0.0316 µM, first compound 10 µM
[13] = second compound 0.1 µM, first compound 0.0316 µM
[14] = second compound 0.1 µM, first compound 0.1 µM
[15] = second compound 0.1 µM, first compound 0.316 µM
[16] = second compound 0.1 µM, first compound 1 µM
[17] = second compound 0.1 µM, first compound 3.16 µM
[18] = second compound 0.1 µM, first compound 10 µM
[19] = second compound 0.316 µM, first compound 0.0316 µM
[20] = second compound 0.316 µM, first compound 0.1 µM
[21] = second compound 0.316 µM, first compound 0.316 µM
[22] = second compound 0.316 µM, first compound 1 µM
[23] = second compound 0.316 µM, first compound 3.16 µM
[24] = second compound 0.316 µM, first compound 10 µM
[25] = second compound 1 µM, first compound 0.0316 µM
[26] = second compound 1 µM, first compound 0.1 µM
[27] = second compound 1 µM, first compound 0.316 µM
[28] = second compound 1 µM, first compound 1 µM
[29] = second compound 1 µM, first compound 3.16 µM
[30] = second compound 1 µM, first compound 10 µM
[31] = second compound 3.16 µM, first compound 0.0316 µM
[32] = second compound 3.16 µM, first compound 0.1 µM
[33] = second compound 3.16 µM, first compound 0.316 µM
[34] = second compound 3.16 µM, first compound 1 µM
[35] = second compound 3.16 µM, first compound 3.16 µM
[36] = second compound 3.16 µM, first compound 10 µM
[37] = second compound 10 µM, first compound 0.0316 µM
[38] = second compound 10 µM, first compound 0.1 µM
[39] = second compound 10 µM, first compound 0.316 µM
[40] = second compound 10 µM, first compound 1 µM
[41] = second compound 10 µM, first compound 3.16 µM
[42] = second compound 10 µM, first compound 10 µM
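Further: compound exposure lasted seven days before viability was read.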
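Wherever viability, T/C is given: percent of vehicle DMSO treated spheroid viability so 100% = untreated.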

SMILES: C[C@@H](NC(=O)c1ncnc(N)c1Cl)c1ncc(C(=O)Nc2cc(C(F)(F)F)c(Cl)cn2)s1
- viability, T/C (compound 0.0316 µM): 109% [middle of 4 runs]
- viability, T/C (compound 10 µM): 83.3% [middle of 4 runs]
- IC50 (curve of compound): > 10 µM

SMILES: CC(C)NCC(C(=O)N1CCN(c2ncnc3c2C(C)CC3O)CC1)c1ccc(Cl)cc1 (centres undefined) + Cc1nc(NC(=O)N2CCCC2C(N)=O)sc1-c1ccnc(C(C)(C)C(F)(F)F)c1
- IC50 [1]: 2.02 µM
- IC50 [2]: > 10 µM
- IC50 [3]: 1.84 µM
- IC50 [4]: 1.29 µM
- IC50 [5]: 0.0796 µM
- IC50 [6]: 0.328 µM
- viability, T/C [7]: 80.2%
- viability, T/C [8]: 104%
- viability, T/C [9]: 75.9%
- viability, T/C [10]: 61.5%
- viability, T/C [11]: 44.3%
- viability, T/C [12]: 37.4%
- viability, T/C [13]: 89.2%
- viability, T/C [14]: 101%
- viability, T/C [15]: 82.5%
- viability, T/C [16]: 50.5%
- viability, T/C [17]: 61%
- viability, T/C [18]: 44.2%
- viability, T/C [19]: 94.7%
- viability, T/C [20]: 80.5%
- viability, T/C [21]: 86.2%
- viability, T/C [22]: 55.8%
- viability, T/C [23]: 49.4%
- viability, T/C [24]: 38.5%
- viability, T/C [25]: 70%
- viability, T/C [26]: 67.4%
- viability, T/C [27]: 72.8%
- viability, T/C [28]: 54.4%
- viability, T/C [29]: 33.6%
- viability, T/C [30]: 35.8%
- viability, T/C [31]: 74.9%
- viability, T/C [32]: 43%
- viability, T/C [33]: 46.5%
- viability, T/C [34]: 52.8%
- viability, T/C [35]: 39.9%
- viability, T/C [36]: 27.8%
- viability, T/C [37]: 47.9%
- viability, T/C [38]: 52.5%
- viability, T/C [39]: 51%
- viability, T/C [40]: 35.9%
- viability, T/C [41]: 39.3%
- viability, T/C [42]: 32.2%

SMILES: CC(Cn1ccc(-c2ccc(C#N)c(Cl)c2)n1)NC(=O)c1cc(C(C)O)[nH]n1 (centres undefined) + Cc1nc(NC(=O)N2CCCC2C(N)=O)sc1-c1ccnc(C(C)(C)C(F)(F)F)c1
- IC50 [1]: > 10 µM
- IC50 [2]: > 10 µM
- IC50 [3]: > 10 µM
- IC50 [4]: > 10 µM
- IC50 [5]: 0.4 µM
- IC50 [6]: < 0.0316 µM
- viability, T/C [7]: 81.8%
- viability, T/C [8]: 101%
- viability, T/C [9]: 89.8%
- viability, T/C [10]: 91%
- viability, T/C [11]: 104%
- viability, T/C [12]: 78.3%
- viability, T/C [13]: 109%
- viability, T/C [14]: 72.3%
- viability, T/C [15]: 99.4%
- viability, T/C [16]: 77.2%
- viability, T/C [17]: 97.6%
- viability, T/C [18]: 75.6%
- viability, T/C [19]: 81.8%
- viability, T/C [20]: 81.6%
- viability, T/C [21]: 58.5%
- viability, T/C [22]: 82%
- viability, T/C [23]: 75.5%
- viability, T/C [24]: 84.8%
- viability, T/C [25]: 79.2%
- viability, T/C [26]: 79.6%
- viability, T/C [27]: 62.3%
- viability, T/C [28]: 65%
- viability, T/C [29]: 64.6%
- viability, T/C [30]: 47.7%
- viability, T/C [31]: 62.7%
- viability, T/C [32]: 61%
- viability, T/C [33]: 50.3%
- viability, T/C [34]: 44.3%
- viability, T/C [35]: 59.4%
- viability, T/C [36]: 43.9%
- viability, T/C [37]: 46.3%
- viability, T/C [38]: 42.6%
- viability, T/C [39]: 52.3%
- viability, T/C [40]: 51.8%
- viability, T/C [41]: 44.3%
- viability, T/C [42]: 40%

SMILES: C=CC(=O)N1CCN(c2nc(=O)n(-c3c(C)ccnc3C(C)C)c3nc(-c4c(O)cccc4F)c(F)cc23)C(C)C1 (centres undefined) + Cc1nc(NC(=O)N2CCCC2C(N)=O)sc1-c1ccnc(C(C)(C)C(F)(F)F)c1
- IC50 [1]: > 10 µM
- IC50 [2]: > 10 µM
- IC50 [3]: > 10 µM
- IC50 [4]: > 10 µM
- IC50 [5]: > 10 µM
- IC50 [6]: < 0.0316 µM
- viability, T/C [7]: 73%
- viability, T/C [8]: 92.1%
- viability, T/C [9]: 88%
- viability, T/C [10]: 98.7%
- viability, T/C [11]: 85.7%
- viability, T/C [12]: 86.8%
- viability, T/C [13]: 79.2%
- viability, T/C [14]: 76.2%
- viability, T/C [15]: 91.2%
- viability, T/C [16]: 60.7%
- viability, T/C [17]: 79.5%
- viability, T/C [18]: 95.8%
- viability, T/C [19]: 91%
- viability, T/C [20]: 96%
- viability, T/C [21]: 74.2%
- viability, T/C [22]: 69.5%
- viability, T/C [23]: 72.7%
- viability, T/C [24]: 92.3%
- viability, T/C [25]: 68.4%
- viability, T/C [26]: 64%
- viability, T/C [27]: 60.5%
- viability, T/C [28]: 68.7%
- viability, T/C [29]: 77.3%
- viability, T/C [30]: 47.4%
- viability, T/C [31]: 48.4%
- viability, T/C [32]: 55.1%
- viability, T/C [33]: 45.1%
- viability, T/C [34]: 57.1%
- viability, T/C [35]: 64.7%
- viability, T/C [36]: 42.5%
- viability, T/C [37]: 43.2%
- viability, T/C [38]: 40.1%
- viability, T/C [39]: 47.3%
- viability, T/C [40]: 36.5%
- viability, T/C [41]: 35%
- viability, T/C [42]: 32.2%
